Measurements: BindingDB's records for doi:10.1016/s0960-894x(00)00033-0 (Albany Molecular Research, 2000)
Where “and” joins values, the source holds several entries; their conditions need not be identical. Identical values can stand only once. Counter-ions that a name gives are not always drawn.

Key:
[1] = Binding affinity against Opioid receptor delta 1 of calf cortex using […] as radioligand
[2] = Binding affinity against Opioid receptor kappa 1 of calf cortex using [3H]-U-69,593 as radioligand
[3] = as above; remark: listed apart in the source

## COCCC1CC2CN3CCc4c([nH]c5ccccc45)C(C(=O)OC)(C2)C13 (stereo not drawn) [(-)-18-Methoxycoronaridine hydrochloride]
[1]
  Ki: 3.5 µM
[2]
  Ki: 4.8 µM
[3]
  Ki: 5.5 µM and 5.1 µM
